The source of these data is publication PMC8329121 (Journal of Neuroimmune Pharmacology, 2021).

Molecules are shown by their SMILES. Several values for one entry are separate records, joined by “and”; a condition that tells them apart may be missing. Equal entries are not always repeated. Where two headings read alike, the source gives them in different places.

Experiment [1] has as its target T1, WT hDAT (Homo sapiens, UniProt Q01959). As to the kind of experiment: Kinetic analysis of [3H]DA uptake with or without 2-BP in PC12 cells. In kind it is cell-based. Further details: expressed in transfected cells; host or cells: PC12 cells, transient, pcDNA3.1+. The note with it: 15 µM 2-BP. The procedure: (§1) This concentration was chosen based on previous studies as well as pilot experiments conducted to determine the optimal concentration (data not shown). […] Intact PC12 cells in 24-well plates transiently expressing WT hDAT or H547A were washed twice with 1× KRH buffer. […] Nonspecific uptake was determined in the presence of 10 µM nomifensine and desipramine. […] specific uptake, nonspecific uptake was subtracted from total uptake. To determine the effects of 2-BP exposure at the 2 h time point, the cells were incubated similarly as above, but allowed to incubate at room temperature for 2 h. After each incubation, cells were washed twice with ice-cold 1× KRH buffer to terminate the […], lysed with 500 µl 1 % SDS, and allowed to shake at room temperature for an hour. Lysates were collected into scintillation vials and radioactivity was measured via liquid scintillation as above. Radioactivity was measured the next day using a liquid scintillation counter (model Tri-Carb 2900TR; PerkinElmer Life and Analytical Sciences, Waltham, MA).

A further experiment deals with T2, hDAT H547A (Homo sapiens, UniProt Q01959, H547A).
T2 construct: expressed in transfected cells; host or cells: PC12 cells, transient, pcDNA3.1+
T2 sequence (Q01959 whole entry H547A): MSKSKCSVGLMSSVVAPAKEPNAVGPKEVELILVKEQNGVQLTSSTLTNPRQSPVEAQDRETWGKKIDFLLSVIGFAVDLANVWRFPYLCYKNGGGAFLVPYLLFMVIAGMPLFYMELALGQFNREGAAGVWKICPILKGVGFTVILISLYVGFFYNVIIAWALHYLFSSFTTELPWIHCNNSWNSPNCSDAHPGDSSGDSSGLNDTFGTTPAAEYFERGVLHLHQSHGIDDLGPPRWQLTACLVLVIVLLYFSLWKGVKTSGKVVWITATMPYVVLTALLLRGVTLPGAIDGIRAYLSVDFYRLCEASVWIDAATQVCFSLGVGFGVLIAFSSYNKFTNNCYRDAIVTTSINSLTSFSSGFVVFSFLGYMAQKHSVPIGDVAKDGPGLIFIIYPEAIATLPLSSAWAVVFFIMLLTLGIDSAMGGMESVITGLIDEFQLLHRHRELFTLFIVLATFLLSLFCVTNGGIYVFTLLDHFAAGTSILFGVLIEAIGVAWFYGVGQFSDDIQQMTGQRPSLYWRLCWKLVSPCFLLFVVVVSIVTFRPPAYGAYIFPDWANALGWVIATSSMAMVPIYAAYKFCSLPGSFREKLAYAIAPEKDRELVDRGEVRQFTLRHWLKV
The description is as above. The conditions noted are these: 15 µM 2-BP. It is filed as cell-based. The procedure:
as §1

Experiment [2] has as its target T3, hDAT D206L (Homo sapiens, UniProt Q01959, D206L).
T3 construct: expressed in transfected cells; host or cells: PC12 cells, transient, pcDNA3.1+
As to the kind of experiment: [3H]WIN35,428 binding in intact PC12 cells. The procedure: (§2) For the competitive inhibition experiment, assays were performed in duplicate in a final volume of 500 µl. […] Assays were terminated by removal of reaction reagents in well and then washed three times with ice-cold assay buffer. Cells were lysed with 1 % SDS for an hour. Radioactivity was determined as described above.

Experiment [3] addresses T4, hDAT D381L (Homo sapiens, UniProt Q01959, D381L).
T4 construct: expressed in transfected cells; host or cells: PC12 cells, transient, pcDNA3.1+
Nature of the experiment: [3H]WIN35,428 binding in intact PC12 cells. The procedure:
as §2

Experiment [4] concerns the target T5, hDAT D206L/H547A (Homo sapiens, UniProt Q01959, D206L/H547A).
T5 construct: expressed in transfected cells; host or cells: PC12 cells, transient, pcDNA3.1+
As to the kind of experiment: [3H]WIN35,428 binding in intact PC12 cells. On the procedure: as §2

In experiment [5] the target is T6, hDAT Y88F/D206L/H547A (Homo sapiens, UniProt Q01959, D206L/H547A/Y88F).
T6 construct: expressed in transfected cells; host or cells: PC12 cells, transient, pcDNA3.1+
T6 sequence (Q01959 1-620 Y88F/D206L/H547A): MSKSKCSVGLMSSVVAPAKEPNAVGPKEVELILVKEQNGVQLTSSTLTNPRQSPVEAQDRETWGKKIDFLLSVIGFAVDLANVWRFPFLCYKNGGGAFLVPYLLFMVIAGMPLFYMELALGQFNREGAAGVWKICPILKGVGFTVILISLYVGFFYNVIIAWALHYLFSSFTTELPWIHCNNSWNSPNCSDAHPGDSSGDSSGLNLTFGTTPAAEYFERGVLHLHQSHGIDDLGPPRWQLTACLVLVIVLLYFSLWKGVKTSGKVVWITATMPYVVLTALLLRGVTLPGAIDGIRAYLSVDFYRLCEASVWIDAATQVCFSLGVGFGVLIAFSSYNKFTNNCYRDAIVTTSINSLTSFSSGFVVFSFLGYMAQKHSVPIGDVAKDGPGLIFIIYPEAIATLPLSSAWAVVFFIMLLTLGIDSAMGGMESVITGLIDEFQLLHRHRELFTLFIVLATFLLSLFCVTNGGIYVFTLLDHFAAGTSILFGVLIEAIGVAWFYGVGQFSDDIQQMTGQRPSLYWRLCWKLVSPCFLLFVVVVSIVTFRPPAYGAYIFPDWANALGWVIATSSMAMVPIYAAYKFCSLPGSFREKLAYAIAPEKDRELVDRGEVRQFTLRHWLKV
As to the kind of experiment: [3H]WIN35,428 binding in intact PC12 cells. The procedure:
as §2

Experiment [6] concerns the target T1, WT hDAT. In kind it is binding. Also on record: expressed in transfected cells; host or cells: PC12 cells, transient, pcDNA3.1+. The note with it: for Bmax of [3H]WIN35,428 binding: PC12 cells; for increase in specific [3H]WIN35,428 binding: Fig. 6d. The procedure:
as §2

The target in experiment [7] is T1, WT hDAT. The conditions noted are these: for Vmax of [3H]DA uptake: PC12 cells.
In experiment [8] the target is T6, hDAT Y88F/D206L/H547A. Nature of the experiment: [3H]DA uptake kinetics and inhibition in intact PC12 cells. It is filed as cell-based.
The target in experiment [9] is T4, hDAT D381L. The description is as above. In kind it is cell-based.
The target of experiment [10] is T5, hDAT D206L/H547A. Described as above. In kind it is cell-based.
For experiment [11], the target named is T3, hDAT D206L. The experiment is described as above. It is filed as cell-based.
[12] abbreviates: ZnCl2 1, 10, 100 µM, concentration-dependent.

T1 sequence (Q01959 whole entry): as the sequence (Q01959 whole entry H547A) above, with A547H counted along it
T5 sequence (Q01959 whole entry D206L/H547A): as the sequence (Q01959 whole entry H547A) above, with D206L counted along it
T3 sequence (Q01959 whole entry D206L): as the sequence (Q01959 whole entry H547A) above, with D206L, A547H counted along it
T4 sequence (Q01959 whole entry D381L): as the sequence (Q01959 whole entry H547A) above, with D381L, A547H counted along it

In the case of `CCCCCCCCCCCCCCC(Br)C(=O)O` (stereo not drawn) [2-BP, 2-bromopalmitate], the “Vmax of [3H]DA uptake in the presence of 2-BP” value on WT hDAT [1] (0 h) is 5.36 ± 0.74 pmol/min/10^5 cells; on WT hDAT [1] (2 h), 5.55 ± 0.92 pmol/min/10^5 cells; on hDAT H547A (0 h), 6.41 ± 1.45 pmol/min/10^5 cells; at hDAT H547A (2 h) it was 5.56 ± 1.93 pmol/min/10^5 cells and 5.66 ± 1.93 pmol/min/10^5 cells.

For the compound `COC(=O)[C@H]1[C@@H](c2ccc(F)cc2)C[C@@H]2CC[C@H]1N2C` [[^3H]WIN35,428], the “Bmax of [3H]WIN35,428 binding” value on hDAT D206L [2] (PC12 cells) was determined as 2.87 ± 0.96 pmol/10^5 cells; at hDAT D381L [3] (PC12 cells) it was 2.00 ± 0.63 pmol/10^5 cells; at hDAT D206L/H547A [4] (PC12 cells) it was 4.95 ± 1.28 poml/10^5 cells; on hDAT Y88F/D206L/H547A [5] (PC12 cells), 3.50 ± 0.47 poml/10^5 cells; at WT hDAT [6] (Table 3 series), 3.32 ± 0.58 pmol/10^5 cells; on WT hDAT [6] (Table 4 series), 2.44 ± 0.40 poml/10^5 cells.

In the case of `[3H]C(CN)c1ccc(O)c(O)c1` (stereo not drawn) [[^3H]DA, 3,4-ethyl-2[N-^3H]dihydroxyphenylethylamine], the “Vmax of [3H]DA uptake” value on WT hDAT [7] (Table 1 series (single mutants)) is 12.43 ± 2.50 pmol/min/10^5 cells; at WT hDAT [7] (Table 2 series (double and triple mutants)), 26.62 ± 3.87 pmol/min/10^5 cells; on hDAT Y88F/D206L/H547A [8] (PC12 cells), 10.78 ± 0.98 pmol/min/10^5 cells; on hDAT D381L [9] (PC12 cells), 4.54 ± 0.95 pmol/min/10^5 cells; on hDAT D206L/H547A [10] (PC12 cells), 40.82 ± 3.60 pmol/min/10^5 cells; on hDAT D206L [11] (PC12 cells), 13.09 ± 3.55 pmol/min/10^5 cells.

Consider `[Cl-].[Cl-].[Zn+2]` [Zn^2+, ZnCl2], for which the “zinc effect on specific [3H]WIN35,428 binding” value at hDAT D206L [2] (setting [12]), on hDAT D381L [3] (setting [12]) and on WT hDAT [6] (setting [12]) was “increase” throughout. Also, the “zinc-induced increase in [3H]WIN35,428 binding versus WT hDAT” value is on record as “attenuated” at hDAT D206L/H547A [4] (10 and 100 µM Zn2+, Fig. 6d); “attenuated” on hDAT Y88F/D206L/H547A [5] (10 and 100 µM Zn2+, Fig. 6d). Moreover, the “increase in specific [3H]WIN35,428 binding” value on WT hDAT [6] (10 µM Zn2+) is recorded as 39%; at WT hDAT [6] (100 µM Zn2+), 52%. Further, the “zinc effect on [3H]DA uptake” value at hDAT Y88F/D206L/H547A [8] (setting [12]), at hDAT D381L [9] (setting [12]), at hDAT D206L/H547A [10] (setting [12]) and at hDAT D206L [11] (setting [12]) was “decrease” throughout.

Turning to `NCCc1ccc(O)c(O)c1` [[^3H]DA, 3,4-ethyl-2[N-^3H]dihydroxyphenylethylamine], the Km at WT hDAT [7] (read-out: Km of [3H]DA uptake, PC12 cells, Table 2 series) stood at 0.45 ± 0.21 µM; at hDAT D381L [9] (PC12 cells), 1.04 ± 0.34 µM; at hDAT D206L [11] (PC12 cells) it was 1.66 ± 0.78 µM.
